Among the test systems are Pseudomonas aeruginosa; Acinetobacter baumannii; Klebsiella pneumoniae; Ralstonia solanacearum; Bacillus thuringiensis; Pseudomonas tolaasii; Escherichia coli; Micrococcus luteus A270; Escherichia coli D31.
Assay in all cases: ≥ marks a high value that may be exact or a test limit, other limits are often not marked, values filed in µg/mL are converted to µM
Assay [1] has as its system Bacillus subtilis ATCC 6051.
For assay [2], the system named is Candida albicans ATCC 90028.
In assay [3] the test system is Cryptococcus neoformans ATCC 208821.
Assay [4] concerns Klebsiella pneumoniae ATCC 13883.
Assay [5] has as its system Escherichia coli ATCC 25922.
Assay [6] has as its system Pseudomonas aeruginosa ATCC 27853.
In assay [7] the test system is Acinetobacter baumannii ATCC 19606.
Assay [8] relates to Klebsiella pneumoniae ATCC 700603.
Assay [9] has as its system Klebsiella pneumoniae ATCC BAA-2146.
Assay [10] relates to Staphylococcus aureus ATCC 43300.
In assay [11] the test system is Pseudomonas aeruginosa KCTC 1637.
For assay [12], the system named is Enterococcus faecium KCCM 12118.
Assay [13] relates to Escherichia coli KCTC 1682.
In assay [14] the test system is Staphylococcus aureus KCTC 1621.
Assay [15] deals with Enterococcus faecalis ATCC 51575.
Assay [16] has as its system Enterococcus faecalis KCCM 29212.
For assay [17], the system named is Bacillus subtilis KCTC 3068.
The subject of assay [18] is Staphylococcus aureus KCCM 40510.
For assay [19], the system named is Staphylococcus epidermidis KCTC 1917.
Assay [20] deals with Enterococcus faecium ATCC 51559.
Assay [21] concerns Salmonella typhimurium KCTC 1926.
The subject of assay [22] is Staphylococcus aureus 5118.
For assay [23], the system named is Staphylococcus aureus E4049.
Assay [24] has as its system Staphylococcus aureus ATCC 9144.
Assay [25] relates to Escherichia coli DH5alpha.
Assay [26] concerns Staphylococcus aureus ATCC 29213.
Assay [27] relates to Staphylococcus epidermidis ATCC 12228.
Assay [28] relates to Salmonella enterica subsp. arizonae ATCC 13314.

The results in this text go back to DBAASP.

≈ marks a conversion by molar mass, not a printed value.

What is called MIC is the lowest concentration found to suppress growth. Low values mean greater potency, high ones weaker potency.

For `CC[C@H](C)[C@@H]1NC(=O)CNC(=O)[C@H](CCCN=C(N)N)NC(=O)[C@H](Cc2ccc(O)cc2)NC(=O)[C@@H](NC(=O)[C@@H](NC(=O)[C@H](CCCN=C(N)N)NC(=O)[C@H](Cc2ccccc2)NC(=O)[C@H](C)NC(=O)[C@H](Cc2c[nH]c3ccccc23)NC(=O)[C@@H](N)CCCCN)C(C)C)CSSC[C@@H](C(=O)N[C@@H](Cc2ccc(O)cc2)C(=O)N[C@@H](CCCN=C(N)N)C(=O)N[C@@H](CCCN=C(N)N)C(=O)N[C@@H](CO)C(=O)N[C@@H](CCCN=C(N)N)C(=O)O)NC1=O` [KWAFRVCYRGICYRRSR], the MIC was 0.225 µM (≈ 0.5 µg/mL) in assay [1]; 7.21 µM (≈ 16 µg/mL) in assay [2]; more than 7.21 µM against Pseudomonas aeruginosa; 7.21 µM (≈ 16 µg/mL) in the assay on Acinetobacter baumannii; 1.8 µM (≈ 4 µg/mL) in assay [3]; 7.21 µM (≈ 16 µg/mL) in [4]. Further, the MIC in [5] is 1.8 µM (≈ 4 µg/mL); in [6], more than 7.21 µM; in assay [7] it was more than 7.21 µM; in the assay with Klebsiella pneumoniae it was more than 7.21 µM; in assay [8], 7.21 µM (≈ 16 µg/mL); in [9], 7.21 µM (≈ 16 µg/mL). The MIC in assay [10] was more than 7.21 µM.

In the case of `CC[C@H](C)[C@H](NC(=O)[C@H](CCCN=C(N)N)NC(=O)[C@H](CC(C)C)NC(=O)[C@@H](N)CC(C)C)C(=O)N[C@@H](C)C(=O)N[C@@H](CC(C)C)C(=O)N[C@@H](CCCN=C(N)N)C(=O)N[C@@H](CCCCN)C(=O)N[C@@H](CCCCN)C(N)=O` [LLRIALRKK], the MIC in assay [11] was 7.2 µM (≈ 7.99 µg/mL); in assay [12] it was 28.8 µM (≈ 32 µg/mL); in assay [13], 3.6 µM (≈ 4 µg/mL); in assay [14], 28.8 µM (≈ 32 µg/mL); in assay [15], not below 57.6 µM; in assay [16], 28.8 µM (≈ 32 µg/mL). The minimal inhibitory concentration (MIC) in assay [17] amounted to 14.4 µM (≈ 16 µg/mL); in assay [18] it was 14.4 µM (≈ 16 µg/mL); in [19], 3.6 µM (≈ 4 µg/mL); in assay [20], 7.2 µM (≈ 7.99 µg/mL); in [21], 7.2 µM (≈ 7.99 µg/mL).

On to `CC[C@H](C)[C@H](NC(=O)[C@H](CCCCN)NC(=O)CNC(=O)[C@H](CC(C)C)NC(=O)[C@@H](NC(=O)[C@H](CCCCN)NC(=O)[C@H](CCCCN)NC(=O)[C@H](CC(C)C)NC(=O)[C@H](CC(N)=O)NC(=O)[C@@H](N)CC(C)C)[C@@H](C)CC)C(=O)NCC(=O)N[C@H](C(=O)N[C@@H](CCSC)C(=O)N[C@@H](CC(C)C)C(=O)N[C@@H](CO)C(=O)N[C@@H](Cc1cnc[nH]1)C(=O)N[C@@H](CC(C)C)C(=O)N[C@@H](CC(N)=O)C(=O)O)C(C)C` [LNLKKILGKIGVMLSHLN], for which the MIC in the assay with Ralstonia solanacearum is 1.05 µM (≈ 2.1 µg/mL); against Bacillus thuringiensis it was 1.46 µM (≈ 2.9 µg/mL); against Pseudomonas tolaasii, 1.36 µM (≈ 2.7 µg/mL); in the assay with Escherichia coli, 0.402 µM (≈ 0.8 µg/mL).

For the molecule `CC[C@H](C)[C@H](NC(=O)[C@H](CC(C)C)NC(=O)CNC(=O)[C@H](CCSC)NC(=O)[C@@H](NC(=O)[C@H](CC(C)C)NC(=O)[C@H](CCC(N)=O)NC(=O)CNC(=O)[C@H](Cc1ccccc1)NC(=O)[C@@H](NC(=O)[C@@H](N)CO)C(C)C)C(C)C)C(=O)N[C@@H](CC(C)C)C(=O)N[C@@H](CO)C(=O)N[C@@H](CO)C(=O)N[C@H](C(=O)N[C@@H](Cc1ccccc1)C(=O)N[C@@H](Cc1ccc(O)cc1)C(=O)N[C@@H](CC(N)=O)C(=O)N[C@@H](CC(=O)O)C(=O)N[C@@H](CC(=O)O)C(=O)O)C(C)C` [SVFGQLVMGLILSSVFYNDD], the MIC was 1.81 µM (≈ 4 µg/mL) in assay [22], not below 250 µM in assay [23] and 15.9 µM (≈ 35 µg/mL) in [24].

On to `CC[C@H](C)[C@H](NC(=O)[C@H](CCC(N)=O)NC(=O)[C@@H](NC(=O)CNC(=O)[C@@H](NC(=O)[C@H](CC(C)C)NC(=O)[C@H](CC(C)C)NC(=O)[C@H](Cc1ccccc1)NC(=O)[C@@H]1CCCN1C(=O)[C@@H](N)[C@@H](C)O)C(C)C)[C@@H](C)O)C(=O)N[C@@H](CC(=O)O)C(=O)N[C@@H](CC(C)C)C(=O)N[C@@H](CCCN=C(N)N)C(=O)O` [TPFLLVGTQIDLR], for which the MIC in [25] is 2.4 µM (≈ 3.53 µg/mL); in the assay with Micrococcus luteus A270, 4.7 µM (≈ 6.92 µg/mL); in assay [26] it was 1.2 µM (≈ 1.77 µg/mL); against Escherichia coli D31, 2.4 µM (≈ 3.53 µg/mL); in assay [6], 4.7 µM (≈ 6.92 µg/mL); in [27], 1.2 µM (≈ 1.77 µg/mL). For the same molecule, the MIC in assay [28] came out at 2.4 µM (≈ 3.53 µg/mL).
